# From patent publication US4973675A, “Hybrid nitrosoureidoanthracyclines having antitumor activity” (University of Tennessee Research Center, priority 1989, dated 1990)
# Several values for one entry are separate records, joined by “and”; a condition that tells them apart may be missing. Equal values may be shown once. Entries after “also recorded” stand apart in the source; their conditions may differ. Read-outs that look alike come from different tables or passages of the source.
# Key:
# [1] = system: human CEM leukemic lymphocytes; assay: Growth inhibition of human CEM leukemic lymphocyte suspension cultures, 48 h continuous drug exposure (ID50); format: cell-based; conditions: Homo sapiens, Lymphocyte; suspension culture, 48 hr continuous drug exposure (Table 3); read-out: CEM, ID50 (50% growth-inhibitory concentration)
# Procedure: (§1) Culture and bioassay conditions were as described in Cancer Chemotherapy Pharmacology 20:277 (1987) "Comparative Effects of Adriamycin and DNA-nonbinding Analogues on DNA, RNA, and Protein Synthesis in Vitro", Israel et al., except that cell counts were determined by hemocytometer rather than by automated cell counting.
# [2] = system: murine P388/adriamycin-resistant leukemia; conditions: Johnson et al. (1976); cited from earlier work
# murine L1210 lymphocytes = assay: DNA alkaline elution filter assay, DNA damage in murine L1210 lymphocytes; format: cell-based
# Excerpt: (§2) By means of the DNA alkaline elution filter assay technique, it is possible to assess the nature of damage induced in DNA by exposure to drugs and other agents. Depending on the assay conditions, DNA lesions can be quantified as direct strand breaks, DNA-DNA interstrand crosslinks, and protein-associated strand breaks and crosslinks. The action of akylating-type drugs on DNA typically results in a predominant formation of direct DNA single-strand breaks and DNA-DNA crosslinks. DNA intercalating agents show a preponderance of protein-associated DNA damage, detectable as protein-associated single-strand breaks and DNA-protein crosslinks.
# (§3) The nature of nitrosoureidoanthracycline-induced DNA damage in murine L1210 and human CLL lymphocytes was assessed by means of the alkaline elution filter technique. Murine L1210 leukemic lymphocytes, like P388/S lymphocytes, are known to contain high levels of topoisomerase II.
# (§4) *All concentrations 1 μM, 1hr incubation. Each entry represents the
# (§5) mean of at least two experiments, frequency per 10^6 nucleotides;
# (§6) statistically significant increase above background underlined. DB, direc
# (§7) (nonenzymatic) DNA breaks; PAB, proteinassociated DNA cleavage; DDCL,
# (§8) interstrand DNA crosslinks; DPCL, DNAprotein crosslinks.
# human CLL lymphocytes = assay: DNA alkaline elution filter assay, DNA damage in human CLL lymphocytes; format: cell-based
# Excerpt: as §2, §3, §4, §5, §6, §7, §8
# B-cell type lymphocytes freshly obtained from patients with chronic lymphocytic leukemia (CLL) show undetectable levels of topoisomerase II.
# murine P388 leukemia = conditions: this protocol, cited from earlier work
# [3] = system: plasmid PC15 supercoiled DNA; assay: DNA unwinding assay (interference with DNA topoisomerase I-mediated unwinding; drug-DNA intercalation); format: biochemical; conditions: for relative strength of drug-DNA intercalation (arbitrary scale): 0 = no intercalation, 9 = very strong intercalation
# Excerpt: DNA unwinding assays were used to measure the ability of a test drug to interfere with DNA topoisomerase I-mediated unwinding of plasmid PC15 supercoiled DNA. DNA topoisomerase I controls the topology of double-stranded DNA and is itself not inhibited by DNA intercalating agents. Rather, intercalating agents cause distortion of the torsional angle between adjacent DNA strand components and thereby interfere with the ability of topoisomerase I to convert supercoiled DNA into relaxed forms. Accordingly, this assay is taken as the definitive test of drug-DNA intercalation.
# Drugs were tested at 4 concentrations over a 125-fold concentration range. […] These compounds are 2-chloroethylurea derivatives of daunorubicin and adriamycin, respectively (i.e. not nitrosoureas, but chemical intermediates from which the nitrosoureas were derived).
# [4] = system: murine P388/adriamycin-resistant leukemia; assay: In vivo antitumor activity vs. murine P388/adriamycin-resistant leukemia (P388/ADR); conditions: for increase in life span: P388/ADR in vivo, lack of response confirmed
# Excerpt: (§9) Assays were run essentially according to the established protocols of the U.S. National Cancer Institute (Geran et al., 1972 "Protocols for Screening Chemical Agents and Natural Products Against Animal Tumors and Other Biological Systems" (3rd Ed.), Cancer Chemotherapy Rep. [3]33, 1-103.), with the test agent given at 3-5 incremental dose levels in each screening experiment and with median survival of treated groups referenced against data for untreated controls.
# (§10) *B6D2F1 males; 1 × 10^6 tumor cell inoculum ip day 0; treatment
# [5] = system: murine L1210 leukemia cells; assay: Clonogenic assay with cultured murine L1210 leukemia cells, 1 h drug exposure (LD90); format: cell-based; conditions: Mus musculus, L1210; 1 hr drug exposure; read-out: L1210 LD90 (dose killing 90% of clonogens)
# Procedure: as §1
# +Dose killing 90% of clonogens, 1hr. drug exposure.
# DNA topoisomerase II = assay: Drug-stimulated topoisomerase II-mediated DNA cleavage assay (end-labeled PMC41 DNA); format: biochemical
# Excerpt: FIGS. 5A and 5B are a photographic reproduction of the results of drug-stimulated topoisomerase II-mediated DNA cleavage assays performed on various compounds, including compounds of the present invention.
# DNA intercalation is a necessary but not a sufficient requirement for DNA topoisomerase II-mediated DNA cleavage. Accordingly, determination of drug-induced enzyme inhibition requires direct assay with isolated topoisomerase II. These assays involve determination of drug-enhanced topoisomerase II-mediated cleavage of PMC41 DNA appropriately end-labeled with [α-^32 P]dATP. As better seen in FIG. 5B, lane B, purified topoisomerase II, under the assay conditions, causes fragmentation of the DNA (background cleavage), as indicated by the radioautographic appearance of bands of cleaved DNA having differing mass values.
# [6] = system: murine P388/adriamycin-resistant leukemia; conditions: mouse, in vivo, ip
# Excerpt: as §9, §10
# [7] = L1210, 1 μM, 1 hr incubation, 0 hr after treatment
# [8] = CLL, 1 μM, 1 hr incubation, 0 hr after treatment
compound,measurement,setting,value
"COc1cccc2c1C(=O)c1c(O)c3c(c(O)c1C2=O)C[C@@](O)(C(=O)CO)C[C@@H]3O[C@H]1C[C@H](N)[C@H](O)[C@H](C)O1 [Adriamycin, adriamycin, reference compound]",IC50,[1],0.055 µM
same,in vivo sensitivity of P388/ADR,[2],insensitive to adriamycin in vivo
same,pattern of DNA damage,murine L1210 lymphocytes; L1210,"significant amounts of protein-associated single-strand breaks, without producing much in the way of direct strand breaks and DNA-DNA interstrand cross-links"
same,"DB, direct (nonenzymatic) DNA breaks",murine L1210 lymphocytes; [7],-0.1 frequency per 10^6 nucleotides
same,"DD-CL, interstrand DNA crosslinks",murine L1210 lymphocytes; [7],0.1 frequency per 10^6 nucleotides
same,pattern of DNA damage,human CLL lymphocytes; CLL B-cell lymphocytes,cannot be detected in these cells to any significant level
same,"DB, direct (nonenzymatic) DNA breaks",human CLL lymphocytes; [8],0.1 frequency per 10^6 nucleotides
same,"DD-CL, interstrand DNA crosslinks",human CLL lymphocytes; [8],0.0 frequency per 10^6 nucleotides
same,"DP-CL, DNA-protein crosslinks",human CLL lymphocytes; [8],0.1 frequency per 10^6 nucleotides
same,"PAB, protein-associated DNA cleavage",human CLL lymphocytes; [8],0.1 frequency per 10^6 nucleotides
same,"longterm survivors, historical results",murine P388 leukemia; optimal dose 3.0 mg/kg,infrequent longterm survivors
same,relative strength of drug-DNA intercalation (arbitrary scale),[3],7
same,interference with topoisomerase I-mediated conversion of supercoiled DNA / intercalation,"[3]; 4 concentrations, 125-fold range",concentration-dependent ability to interfere with the conversion of supercoiled DNA to relaxed forms; also recorded: ability of increasing concentrations of adriamycin (positive control) to interfere with the conversion of supercoiled DNA to relaxed forms
same,increase in life span,[4],0%
same,IC90,[5],0.31 µM
same,enhancement of topoisomerase II-mediated DNA cleavage,DNA topoisomerase II; 625-fold concentration range,at low concentrations adriamycin enhances DNA fragmentation
same,concentration at which background cleavage is eliminated,DNA topoisomerase II; and higher,≥ 4.6 μM and ≥ 2.5 μg/ml
"COc1cccc2c1C(=O)c1c(O)c3c(c(O)c1C2=O)C[C@@](O)(C(C)=O)C[C@@H]3O[C@H]1C[C@H](N)[C@H](O)[C@H](C)O1 [Daunorubicin, daunorubicin]",IC50,[1],0.03 µM
same,"Net mean percent weight change, day 7",[6]; 2 mg/kg,-0.5%
same,"Net mean percent weight change, day 7",[6]; 3 mg/kg,-7%
same,"Net mean percent weight change, day 7",[6]; 4 mg/kg,-7%
same,"Net mean percent weight change, day 7",[6]; 12 mg/kg,-13%
same,"Net mean percent weight change, day 7",[6]; 15 mg/kg,-13%
same,"Net mean percent weight change, day 7",[6]; 18 mg/kg,-28%
same,in vivo sensitivity of P388/ADR,[2],cross-resistant to daunorubicin
same,"ILS, historical results",murine P388 leukemia; optimal dose 2.0 mg/kg,+75 - +100%
same,"longterm survivors, historical results",murine P388 leukemia; optimal dose 2.0 mg/kg,no longterm survivors
same,relative strength of drug-DNA intercalation (arbitrary scale),[3],7
same,toxicity flag,"[4]; 18.0 mg/kg, d1 only",Toxic
same,increase in life span,[4],0%
same,Long-term survivors,"[4]; ip, 1.0 mg/kg qd 1-4",0/6
same,Median increase in lifespan,"[4]; ip, 1.0 mg/kg qd 1-4",+9%
same,Median survival,"[4]; ip, 1.0 mg/kg qd 1-4",12 days
same,"Net mean percent weight change, day 7","[4]; ip, 1.0 mg/kg qd 1-4",+20%
same,Range of death (dying animals),"[4]; ip, 1.0 mg/kg qd 1-4",11 to 12 days
same,Long-term survivors,"[4]; ip, 2.0 mg/kg qd 1-4",0/7
same,Median increase in lifespan,"[4]; ip, 2.0 mg/kg qd 1-4",0%
same,Median survival,"[4]; ip, 2.0 mg/kg qd 1-4",11 days
same,Range of death (dying animals),"[4]; ip, 2.0 mg/kg qd 1-4",11 to 12 days
same,Long-term survivors,"[4]; ip, 3.0 mg/kg qd 1-4",0/7
same,Median increase in lifespan,"[4]; ip, 3.0 mg/kg qd 1-4",0%
same,Median survival,"[4]; ip, 3.0 mg/kg qd 1-4",11 days
same,Range of death (dying animals),"[4]; ip, 3.0 mg/kg qd 1-4",10 to 12 days
same,Long-term survivors,"[4]; ip, 4.0 mg/kg qd 1-4",0/7
same,Median increase in lifespan,"[4]; ip, 4.0 mg/kg qd 1-4",-9%
same,Median survival,"[4]; ip, 4.0 mg/kg qd 1-4",10 days
same,Range of death (dying animals),"[4]; ip, 4.0 mg/kg qd 1-4",9 to 12 days
same,Long-term survivors,"[4]; ip, 12.0 mg/kg d1 only",0/7
same,Median increase in lifespan,"[4]; ip, 12.0 mg/kg d1 only",0%
same,Median survival,"[4]; ip, 12.0 mg/kg d1 only",10 days
same,Range of death (dying animals),"[4]; ip, 12.0 mg/kg d1 only",9 to 11 days
same,Long-term survivors,"[4]; ip, 15.0 mg/kg d1 only",0/7
same,Median increase in lifespan,"[4]; ip, 15.0 mg/kg d1 only",0%
same,Median survival,"[4]; ip, 15.0 mg/kg d1 only",10 days
same,Range of death (dying animals),"[4]; ip, 15.0 mg/kg d1 only",8 to 11 days
same,Long-term survivors,"[4]; ip, 18.0 mg/kg d1 only",0/7
same,Median survival,"[4]; ip, 18.0 mg/kg d1 only",8 days
same,Range of death (dying animals),"[4]; ip, 18.0 mg/kg d1 only",6 to 9 days
same,Median increase in lifespan,"[4]; ip, 18.0 mg/kg d1 only, ** Toxic",-20%
same,IC90,[5],0.9 µM
